Test results from patent US11517577B2, “Fluorinated bile acid derivatives” (NZP UK LIMITED, priority 2018, dated 2022).
Where two headings read alike, the source gives them in different places.

Assays:
[1] = molecular target: T1, Human Farnesoid X Receptor (NR1H4, FXR) (Homo sapiens, UniProt Q96RI1); assay: FXR reporter assay, EC50 and efficacy (Indigo Biosciences luciferase reporter cells); format: cell-based; settings: for Efficacy: maximum point on the dose response curve, GW4064 designated as 100%
T1 sequence (Q96RI1 1-486): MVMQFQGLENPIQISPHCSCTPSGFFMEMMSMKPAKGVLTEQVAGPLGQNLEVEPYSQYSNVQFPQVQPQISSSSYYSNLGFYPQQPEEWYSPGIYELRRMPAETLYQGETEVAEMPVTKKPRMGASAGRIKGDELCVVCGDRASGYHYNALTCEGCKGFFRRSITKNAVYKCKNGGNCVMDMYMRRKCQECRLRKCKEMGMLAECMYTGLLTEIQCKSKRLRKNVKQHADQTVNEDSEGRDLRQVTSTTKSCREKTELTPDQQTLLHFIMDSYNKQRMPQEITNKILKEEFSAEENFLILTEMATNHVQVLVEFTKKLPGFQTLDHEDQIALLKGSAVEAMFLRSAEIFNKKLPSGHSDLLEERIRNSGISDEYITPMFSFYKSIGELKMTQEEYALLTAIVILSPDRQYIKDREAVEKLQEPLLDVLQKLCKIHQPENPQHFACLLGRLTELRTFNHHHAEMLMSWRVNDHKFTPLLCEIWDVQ
Experimental: The compounds of the invention were assayed for agonist activity at the FXR receptor.
Dose-response assays were performed as described in the technical manual of the Human Farnesoid X Receptor (NR1H4, FXR) Reporter Assay System (Indigo Biosciences Human Farnesoid X Receptor (NR1H4, FXR) Reporter Assay System, Technical Manual (version 7.1b), at the World Wide Web (www)indiqobiosciences.com).
FXR reporter cells consisting of an FXR-responsive promoter gene functionally linked to the luciferase gene were defrosted and seeded into a 96-well plate and these cells were immediately dosed with the test compounds at different concentrations (10-0.05 μM) according to the manufacturer's protocol. […] Following this, the induction of luciferase activity, which is the measure of the agonist activity, was quantified by using luminometer (TECAN) according to the manufacturer's protocol.

[2] = test system: SHP expression in Huh7 cells; assay: qPCR of SHP (NR0B2) expression in Huh7 cells; format: cell-based, human; settings: Huh7, 24 hours
Experimental: (§1) To assess specific changes in gene expression in response to the test compounds, precise quantification and analysis by quantitative real-time PCR (qPCR) was carried out. Mammalian tissue culture experiments involved seeding Hepatocellular carcinoma, (Huh7) cells, in 6 well plates at a concentration of 1×10^6 cells/well and incubating for 24 hours at 37° C. to allow attachment.
(§2) Testing in Huh7 cells and HepG2 cells was also carried out for Compound 14 in the same way as for Compound 2.
(§3) Total RNA was extracted using the RNAQUEOUS™ Total RNA Isolation kit (Ambion) and all reagents were provided in the kit or prepared according to manufacturer's instructions. For cultured cells, the medium was removed and cells were washed with 1×PBS to remove cellular debris and residual medium. Total RNA was extracted from fresh cells. For 1×10^6 cells, 350 μl lysis buffer was added directly to the well and cells were harvested by scraping with a pipette tip. Lysed cells were combined with an equal volume of 64% ethanol and mixed thoroughly by pipetting. The ethanol-lysate mix was transferred to a column and spun at 12,000×G for 1 minute and flow through discarded. […]
(§4) The ready-to-use reaction mastermix, ITAQ™ Universal SYBR® Green Supermix (Biorad) was used for all qPCR reactions. […] Melting curve analysis was performed straight after each run by increasing the temperature from 60° C. to 95° C. in 0.3° C. increments, and measuring fluorescence dissociation.
To quantify gene expression, the baseline-corrected Ct value was determined automatically by the qPCR system software (Applied Biosystems). Relative changes in gene expression were determined by the Livak, or ΔΔCt, method whereby the Ct values of target genes were normalised to Ct value of the reference gene, for both the samples treated with vehicle/untreated samples (control) and the samples treated with compound (test samples). […] And finally, the expression ratio was calculated using the equation 2^−ΔΔC^t. […]

[3] = test system: OSTα expression in Huh7 cells; assay: qPCR of OSTα expression in Huh7 cells; format: cell-based, human; settings: Huh7, 24 hours
Experimental: as §1, §2
Total RNA was extracted using the RNAQUEOUS™ Total RNA Isolation kit (Ambion) and all reagents were provided in the kit or prepared according to manufacturer's instructions. […]
as §4
(§5) To quantify gene expression, the baseline-corrected Ct value was determined automatically by the qPCR system software (Applied Biosystems). Relative changes in gene expression were determined by the Livak, or ΔΔCt, method whereby the Ct values of target genes were normalised to Ct value of the reference gene, for both the samples treated with vehicle/untreated samples (control) and the samples treated with compound (test samples). […]

[4] = test system: CYP7A1 expression in HepG2 cells; assay: qPCR of CYP7A1 expression in HepG2 cells; format: cell-based, human; settings: HepG2, 24 hours
Experimental: (§6) Compound 2 and OCA were also tested in the human hepatocellular carcinoma cell line, HepG2.
as §2
as §3, with “tip.” for “tip. Lysed cells were combined with an equal volume of 64% ethanol and mixed thoroughly by pipetting. The ethanol-lysate mix was transferred to a column and spun at 12,000×G for 1 minute and flow through discarded.”
as §4, §5

[5] = test system: TGFβ1 expression in HepG2 cells; assay: qPCR of TGFβ1 expression in HepG2 cells; format: cell-based, human; settings: HepG2, 24 hours
Experimental: as §6, §2
as §3, with “tip.” for “tip. Lysed cells were combined with an equal volume of 64% ethanol and mixed thoroughly by pipetting. The ethanol-lysate mix was transferred to a column and spun at 12,000×G for 1 minute and flow through discarded.”
as §4, §5

[6] = molecular target: T2, TGR5 (GPBAR1) receptor (Homo sapiens, UniProt Q8TDU6); assay: HITHUNTER cAMP assay, agonist mode, TGR5 receptor; settings: for Emax: read-out: Max Response; for agonist activity at the TGR5 receptor: statement in words on Table 2
T2 sequence (Q8TDU6 1-330): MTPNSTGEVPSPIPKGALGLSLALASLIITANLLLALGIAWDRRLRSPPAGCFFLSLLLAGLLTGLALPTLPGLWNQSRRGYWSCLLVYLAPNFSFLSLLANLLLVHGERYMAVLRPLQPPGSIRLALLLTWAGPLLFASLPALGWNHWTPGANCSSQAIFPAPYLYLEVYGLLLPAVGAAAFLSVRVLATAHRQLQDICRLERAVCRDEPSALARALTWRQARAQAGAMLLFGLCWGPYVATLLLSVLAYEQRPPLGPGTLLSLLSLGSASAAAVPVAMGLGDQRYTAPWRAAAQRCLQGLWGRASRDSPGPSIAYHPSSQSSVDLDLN

[7] = Xiao et al., 2017; cited from earlier work

| SMILES | EC50 [1] [nM] | Efficacy [1] [%] | SHP expression levels increased ([2]; compound at EC50 concentration) [times] | SHP expression levels increased ([2]; higher value, printed again as 'EC50 concentration') [times] | Ostα mRNA increase in expression ([3]; compound at EC50 concentration) [fold] | Ostα mRNA increase in expression ([3]; compound at EC90 concentration) [fold] | CYP7A1 expression ([4]; with increasing concentrations of compound) | TGFβ1 expression levels ([5]; compound at its EC50 concentration) | EC50 [6] [nM] | Emax [6] [%] | agonist activity at the TGR5 receptor [6] | SHP expression levels ([2]; compound at its EC90 concentration) | CYP7A1 expression ([4]; compound at the EC50 concentration, versus vehicle control cells) | TGFβ1 expression ([5]; with increasing compound concentrations) | EC50 ([1]; FXR reporter cells, 24 h incubation, normalized against EC50 of GW4064, assigned as […] nM) [nM] | liver:plasma concentration ratio [7] |
| --- | --- | --- | --- | --- | --- | --- | --- | --- | --- | --- | --- | --- | --- | --- | --- | --- |
| CC[C@@H]1[C@@H]2[C@@H](F)[C@H](O)CC[C@]2(C)C2CC[C@@]3(C)C(CCC3[C@H](C)CCNC(=O)NS(=O)(=O)c3ccccc3)C2[C@@H]1O (stereo partly drawn) [Compound 2, N,N′-(3α,7α-Dihydroxyl-4β-fluoro-6α-ethyl-24-nor-5β-cholan-23-yl)-benzene sulfonyl urea] | 24 | 195 | 1.5 | 2.5 | 11 | 18 | downregulated | significant downregulation | > 100000 | 0 | neither Compound 2 nor Compound 14 has agonist activity at the TGR5 receptor |  |  |  |  |  |
| CC[C@H]1[C@@H](O)[C@@H]2[C@H](CC[C@]3(C)[C@@H]([C@H](C)CCC(=O)NS(=O)(=O)c4ccc(OC(F)(F)F)cc4)CC[C@@H]23)[C@@]2(C)CC[C@@H](O)[C@H](F)[C@@H]12 [Compound 14, N-(3α,7α-Dihydroxyl-4β-fluoro-6α-ethyl-5β-cholan-24-oyl)-p-trifluoromethoxy benzene sulfonamide] |  |  |  |  |  |  |  |  | > 100000 | 0 | neither Compound 2 nor Compound 14 has agonist activity at the TGR5 receptor | more than doubled | significantly decreased | decline |  |  |
| CC[C@H]1[C@@H](O)[C@@H]2[C@H](CC[C@]3(C)[C@@H]([C@H](C)CCC(=O)NS(=O)(=O)c4ccc(C(F)(F)F)cc4)CC[C@@H]23)[C@@]2(C)CC[C@@H](O)[C@H](F)[C@@H]12 [Compound 18, N-(3α,7α-Dihydroxyl-4β-fluoro-6α-ethyl-5β-cholan-24-oyl)-4-trifluoromethylphenyl sulfonamide] |  | 148 |  |  |  |  |  |  |  |  |  |  |  |  | 15 | highest |
